Literature values, collected in patent US20160143861A1, “COMPOSITIONS COMPRISING HYDROXYTYROSOL, RESVERATROL, LYCOPENE, FLAVANOLS, AND/OR FLAVONOIDS AND USE THEREOF” (SPECIALTY NUTRITION GROUP, INC., priority 2013, published 2016).

time of peak plasma concentration after ingestion: 5 to 10 min
SMILES: OCCc1ccc(O)c(O)c1 [Hydroxytyrosol]
